The source of these data is patent US9588122B2, “Methods of treating cancer sensitive to anti-EGFR therapy and modifying treatment using peroxiredoxin 6 biomarker” (The Board of Trustees of the Leland Stanford Junior …, priority 2013, dated 2017).

Structures are written as SMILES.

For orientation: IC50 means the concentration that inhibits the measured activity by half.

One assay has as its system A431. In words: Dose-dependent change in panel protein levels by western blot. As to BAG4 protein level change: key: (+) for increase; (−) for decrease; N.C.: (N.C) for no change; (~) for not detected. As to CAD17 protein level change: key: (+) for increase; (−) for decrease; N.C.: (N.C) for no change; (~) for not detected. As to CBFB protein level change: key: (+) for increase; (−) for decrease; N.C.: (N.C) for no change; (~) for not detected. As to Claudin 1 protein level change: key: (+) for increase; (−) for decrease; N.C.: (N.C) for no change; (~) for not detected. The following applies: for BAG4 protein level change / CAD17 protein level change / CBFB protein level change / Claudin 1 protein level change / ELAVL-1 protein level change / EpCAM protein level change / HSPG2 protein level change / PDCD4 protein level change / PRDX6 protein level change / QARS protein level change / S100A9 protein level change / SERPINE1 protein level change / SNX5 protein level change / TESTICAN2 protein level change / TNFAIP2 protein level change / TROP-2 protein level change: dose-dependent, 16 h, western blot; for changes in levels of the 16 validated proteins (immunoblots): erlotinib 100-1,000 nM, paclitaxel 10-100 nM. It is filed as cell-based, human.

The next assay deals with NSCLC cells. Briefly: Biomarker profiles / PRDX6 shedding of treated NSCLC (Example 3). It is filed as cell-based.
A further assay relates to NSCLC patients. Briefly: PRDX6 levels in circulation of NSCLC patients before and after Tarceva. It is filed as in vivo, human. An excerpt:
To validate if this temporal profile is replicated in a clinical setting, the plasma and/or sera from human NSCLC patients was studied before and after Tarceva® (erlotinib) treatment. […] Serum samples from MRN #48 (FIG. 10A) were taken before and after treatment with Tarceva®. […] Plasma samples were obtained before treatment, and at 2 weeks and 4 weeks post initiation of treatment.

For the next assay, the system named is A431 cells. The following applies: previously shown; read-out: IC50 of paclitaxel in A431 cells; cited from earlier work.
Setting [1] is: patient MRN 9, Pre-Tarceva 1.07 +/− 0.03.
Where [2] appears, read: patient MRN 48, Pre-Tarceva 0.27 +/− 0.01.
[3] abbreviates: patient MRN 91, Pre-Tarceva 0.65 +/− 0.09.

In the case of `O=c1[nH]c2ccccc2n1C1CCN(Cc2ccc(-c3nc4cc5[nH]cnc5cc4nc3-c3ccccc3)cc2)CC1` [A6730], in the assay on A431, the “BAG4 protein level change” value is reported as “+”, the “CAD17 protein level change” value is given as “N.C”, the “CBFB protein level change” value is “+” and the “Claudin 1 protein level change” value is listed as “+”. In addition, in the assay with A431, the “ELAVL-1 protein level change” value was “N.C”, the “EpCAM protein level change” value is recorded as “N.C”, the “HSPG2 protein level change” value is listed as “N.C” and the “PDCD4 protein level change” value was “N.C”. For the same compound, in the assay with A431, the “PRDX6 protein level change” value is on record as “N.C”, the “QARS protein level change” value is listed as “+”, the “S100A9 protein level change” value is on record as “N.C” and the “SERPINE1 protein level change” value is reported as “N.C”. For the same compound, in the assay with A431, the “SNX5 protein level change” value is “N.C”, the “TESTICAN2 protein level change” value is “N.C”, the “TNFAIP2 protein level change” value is “+” and the “TROP-2 protein level change” value is “N.C”.

On to `COc1cccc(-c2cc(=O)c3ccccc3o2)c1N` [PD98059], for which, in the assay with A431 (AKT or MAPK pathway inhibition), the Claudin-1 expression entry is “changes in expression”; the “panel proteins that showed a change in abundance” value was “CAD17, PDCD4, S100A9, SERPINE1, and Testican-2”; the “panel proteins unchanged by treatment” value is “ELAVL-1, EpCAM, HSPG2, TROP2, and SNX5”. In the assay on A431, the “BAG4 protein level change” value is “N.C”, the “CAD17 protein level change” value was “+”, the “CBFB protein level change” value is listed as “N.C” and the “Claudin 1 protein level change” value is listed as “+”. In addition, in the assay on A431, the “ELAVL-1 protein level change” value is reported as “N.C”, the “EpCAM protein level change” value is recorded as “N.C”, the “HSPG2 protein level change” value was “N.C” and the “PDCD4 protein level change” value is listed as “+”. Moreover, in the assay with A431, the “PRDX6 protein level change” value was “+”, the “QARS protein level change” value was “N.C”, the “S100A9 protein level change” value is “+” and the “SERPINE1 protein level change” value is listed as “+”. In the assay on A431, the “SNX5 protein level change” value is given as “N.C”, the “TESTICAN2 protein level change” value is reported as “+”, the “TNFAIP2 protein level change” value is given as “N.C” and the “TROP-2 protein level change” value is recorded as “N.C”.

As for `C#Cc1cccc(Nc2ncnc3cc(OCCOC)c(OCCOC)cc23)c1` [erlotinib], in the assay on NSCLC cells (compared with Iressa treated cells, data not shown), the “biomarker profiles by treated NSCLC cells” value is recorded as “the same as Iressa”. For the same compound, the “circulating PRDX6 profile in patients with positive response” value with NSCLC patients (at least three patients, pilot data) is recorded as “initial rise in circulating PRDX6 (2-4 weeks post-therapy) followed by a decline in PRDX6 levels by 8 weeks post-therapy”. Moreover, in the assay with NSCLC patients (setting [1]), the “PRDX6 level in circulation, Post-Tarceva (2 wks.)” value is recorded as 1.63 +/− 0.05 ng PRDX6/Total Protein in circulation; the “PRDX6 level in circulation, Post-Tarceva (3.5 to 4 wks.)” value (shortened to “PRDX6 level … (3.5 to 4 wks.)”) is given as 0.33 +/− 0.11 ng PRDX6/Total Protein in circulation; the “PRDX6 level in circulation, Post-Tarceva (6.5-8 wks.)” value was 0.45 +/− 0.05 ng PRDX6/Total Protein in circulation. For the same compound, in the assay on NSCLC patients (setting [2]), the “PRDX6 level in circulation, Post-Tarceva (2 wks.)” value is 0.76 +/− 0.08 ng PRDX6/Total Protein in circulation and the “PRDX6 level … (3.5 to 4 wks.)” value is 0.42 +/− 0.02 ng PRDX6/Total Protein in circulation. In the assay with NSCLC patients (setting [3]), the “PRDX6 level … (3.5 to 4 wks.)” value is on record as 5.0 +/− 0.3 ng PRDX6/Total Protein in circulation and the “PRDX6 level in circulation, Post-Tarceva (6.5-8 wks.)” value is given as 0.46 +/− 0.18 ng PRDX6/Total Protein in circulation. For the same compound, in the assay on A431, the “BAG4 protein level change” value is “+”, the “CAD17 protein level change” value is given as “+”, the “CBFB protein level change” value was “+” and the “Claudin 1 protein level change” value is reported as “+”. For the same compound, in the assay with A431, the “ELAVL-1 protein level change” value is “+”, the “EpCAM protein level change” value is “+”, the “HSPG2 protein level change” value is on record as “+” and the “PDCD4 protein level change” value is given as “+”. Moreover, in the assay on A431, the “PRDX6 protein level change” value was “+”, the “QARS protein level change” value is “+”, the “S100A9 protein level change” value was “+” and the “SERPINE1 protein level change” value is “+”. In addition, in the assay on A431, the “SNX5 protein level change” value is “−”, the “TESTICAN2 protein level change” value is reported as “+”, the “TNFAIP2 protein level change” value was “+” and the “TROP-2 protein level change” value is given as “+”. For the same compound, the “changes in levels of the 16 validated proteins (immunoblots)” value in the assay on A431 is recorded as “mirrored the effect of gefitinib”.

With `CC(=O)O[C@H]1C(=O)[C@@]2(C)[C@H]([C@H](OC(=O)c3ccccc3)[C@]3(O)C[C@H](OC(=O)[C@H](O)[C@@H](NC(=O)c4ccccc4)c4ccccc4)C(C)=C1C3(C)C)[C@]1(OC(C)=O)CO[C@@H]1C[C@@H]2O` [paclitaxel], the IC50 in the assay on A431 cells was about 10 nM. The “shedding of PRDX6” value in the assay with NSCLC cells (effective paclitaxel treatment on NSCLC) is “failed to elicit a similar shedding of PRDX6”. Further, in the assay with A431, the “BAG4 protein level change” value was “N.C”, the “CAD17 protein level change” value is recorded as “N.C”, the “CBFB protein level change” value is listed as “N.C” and the “Claudin 1 protein level change” value is on record as “N.C”. In the assay on A431, the “ELAVL-1 protein level change” value is “N.C”, the “EpCAM protein level change” value is “N.C”, the “HSPG2 protein level change” value is “N.C” and the “PDCD4 protein level change” value is “N.C”. In the assay with A431, the “PRDX6 protein level change” value is listed as “N.C”, the “QARS protein level change” value is on record as “N.C”, the “S100A9 protein level change” value is listed as “N.C” and the “SERPINE1 protein level change” value was “N.C”. In the assay on A431, the “SNX5 protein level change” value is “N.C”, the “TESTICAN2 protein level change” value is on record as “N.C”, the “TNFAIP2 protein level change” value is “N.C” and the “TROP-2 protein level change” value is “N.C”. Also, the “changes in levels of the 16 validated proteins (immunoblots)” value with A431 is given as “none of the proteins tested demonstrated a change in abundance”.
